Test results taken from patent US10981932B2, “Macrocyclic indole derivatives” (Bayer Aktiengesellschaft, priority 2016, dated 2021).
Where “and” joins values, the source holds several entries; their conditions need not be identical. Equal values may be shown once. Where a name gives a salt, the structure may show the parent alone. Read-outs that look alike come from different tables or passages of the source.

Key:
SUDHL10 [1] = test: Anti-proliferative effect (CellTiter-Glo, 72 h), SUDHL10; type: cell-based; settings: SUDHL10 cells, antiproliferation, median, read-out: Antiproli SUDHL10 [M] (median)
In short: (§1)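 72 h compound treatment, 37 °C humidified; CellTiter-Glo added, 10 min incubation, luminescence read; day 0 plate read in parallel for baseline.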

A2780 = test: Anti-proliferative effect (CellTiter-Glo, 72 h), A2780; type: cell-based; settings: A2780 cells, median, read-out: IC50 antiproliferation assay A2780 [M] (median)
In short: as §1

SUDHL5 [2] = test: Induction of caspase-3/7 activity (Caspase-Glo 3/7), SUDHL5; type: cell-based; settings: caspase-3/7 induction, SUDHL5 cells, 3 h treatment, median
In short: (§2)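 DLBCL lines SUDHL5 and SUDHL10 treated with compounds for 3 h at 37 °C; caspase-3/7 activity read by Caspase-Glo 3/7 luminescence. Medium-only background subtracted; EC50 fitted with bottom fixed at 1 and top fixed at the reference compound's maximal induction.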

SUDHL10 [3] = test: Induction of caspase-3/7 activity (Caspase-Glo 3/7), SUDHL10; type: cell-based; settings: caspase-3/7 induction, SUDHL10 cells, 3 h treatment, median
In short: as §2

MV-4-11 = test: Anti-proliferative effect (CellTiter-Glo, 72 h), MV-4-11; type: cell-based; settings: Homo sapiens, median, read-out: IC50 antiproliferation assay MV-4-11 [M] (median)
In short: as §1

SUDHL5 [4] = test: Induction of cytotoxicity (CellTiter-Glo, 5 h), SUDHL5
MCL-1 = MCL-1 (Homo sapiens, UniProt Q07820); test: Protein-protein interaction assay MCL-1/Noxa BH3 peptide (MCL-1 assay), TR-FRET; type: binding; settings: MBP-MCL-1 / Noxa BH3-derived peptide, median
In short: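 IC50 came from a 4-parameter fit of the normalized 665/620 nm TR-FRET ratio (anti-MBP Eu-cryptate/streptavidin-XL665). Compounds (0.1 nM–20 μM, duplicates) were preincubated 10 min at 22 °C with 1 nM MBP-MCL-1 in pH 7 Tris/NaCl/KF buffer, then read after 1 h at 22 °C plus overnight at 4 °C.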

SUDHL10 [5] = test: Induction of cytotoxicity (CellTiter-Glo, 5 h), SUDHL10
SUDHL5 [6] = test: Anti-proliferative effect (CellTiter-Glo, 72 h), SUDHL5; type: cell-based; settings: SUDHL5 cells, antiproliferation, median, read-out: Antiproli SUDHL5 [M] (median)
In short: as §1

[7] = Homo sapiens, SU-DHL10, 72 h, 72 h incubation
[8] = Homo sapiens, SU-DHL-5, 5 h, read-out: Cytotox SUDHL5 [M] (median), SUDHL5 cells, cytotoxicity induction, CellTiter-Glo, 5 h incubation, median
[9] = Homo sapiens, SU-DHL10, 5 h, read-out: Cytotox SUDHL10 [M] (median), SUDHL10 cells, cytotoxicity induction, CellTiter-Glo, 5 h incubation, median
[10] = Homo sapiens, SU-DHL-5, 72 h, 72 h incubation
[11] = read-out: Cytotox SUDHL5 [M] (median), SUDHL5 cells, cytotoxicity induction, CellTiter-Glo, 5 h, median
[12] = read-out: Cytotox SUDHL10 [M] (median), SUDHL10 cells, cytotoxicity induction, CellTiter-Glo, 5 h, median
[13] = read-out: Cytotox SUDHL5 [M] (median), SUDHL5 cells, cytotoxicity induction, CellTiter-Glo, 5 h incubation, median
[14] = read-out: Cytotox SUDHL10 [M] (median), SUDHL10 cells, cytotoxicity induction, CellTiter-Glo, 5 h incubation, median

Sequence of MCL-1 (Q07820 whole entry): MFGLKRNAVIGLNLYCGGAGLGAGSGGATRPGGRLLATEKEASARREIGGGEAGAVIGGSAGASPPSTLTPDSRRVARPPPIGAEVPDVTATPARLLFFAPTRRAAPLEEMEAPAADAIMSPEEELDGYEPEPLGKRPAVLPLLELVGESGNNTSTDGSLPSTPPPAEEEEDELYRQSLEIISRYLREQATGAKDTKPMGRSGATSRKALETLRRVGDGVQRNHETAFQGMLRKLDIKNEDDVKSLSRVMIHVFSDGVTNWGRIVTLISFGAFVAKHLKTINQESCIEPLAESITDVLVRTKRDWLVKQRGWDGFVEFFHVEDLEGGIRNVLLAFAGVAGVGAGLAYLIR

Row | Compound | IC50 (SUDHL10 [1]; [7]) [M] | IC50 (A2780; Homo sapiens, A2780, 72 h) [M] | EC50 (SUDHL5 [2]; Homo sapiens, SU-DHL-5, 3 h) [µM] | EC50 (SUDHL10 [3]; Homo sapiens, SU-DHL10, 3 h) [µM] | IC50 (MV-4-11; MV4-11, 72 h, MV-4-11 cells) [M] | IC50 (MCL-1) [µM] | IC50 (SUDHL10 [5]; [9]) [M] | IC50 (A2780) | EC50 (SUDHL5 [2]) [µM] | EC50 (SUDHL10 [3]) [µM] | IC50 (SUDHL10 [1]; 72 h incubation) [M] | IC50 (SUDHL5 [4]; [13]) [M] | IC50 (SUDHL10 [5]; [14]) [M] | IC50 (SUDHL5 [6]; 72 h incubation) [M] | other results
1 | Cc1ccc2c(C(C)CCOc3cccc4cc(F)ccc34)c(C(=O)O)n3c2c1-c1c(nn(C)c1C)COCCCC3 (racemic) [Example 276, 7-{4-[(6-fluoronaphthalen-1-yl)oxy]butan-2-yl}-2,3,4-trimethyl-2,10,11,12,13,15-hexahydropyrazolo[4′3′:9,10][1,6]oxazacycloundecino[8,7,6-hi]indole-8-carboxylic Acid] | 7.32e-06 | 1.22e-05 | 4.07 | 10.3 | 1.2e-05 | 0.00756 | 1.03e-05 | – | – | – | – | – | – | – | IC50 (SUDHL5 [4]; [8]): 5.23e-06 M; IC50 (SUDHL5 [6]; [10]): 5.85e-06 M
2 | Cc1nn(C)c2c1-c1cccc3c(CCCOc4cccc5ccccc45)c(C(=O)O)n(c13)CCCCOC2 (single isomer, unassigned; enantiomer 1) [Example 317, (+)-1,3-dimethyl-7-[3-(naphthalen-1-yloxy)propyl]-1,10,11,12,13,15-hexahydropyrazolo[4′,3:9,10][1,6]oxazacycloundecino[8,7,6-hi]indole-8-carboxylic Acid (Enantiomer 1)] | – | > 3.3e-05 | 24.5 | > 33 | 2.34e-05 | 0.0115 | – | – | – | – | – | – | – | – | IC50 (SUDHL10 [1]; Homo sapiens, SU-DHL10, 72 h, 72 h): > 3.3e-05 M; IC50 (SUDHL5 [4]; Homo sapiens, SU-DHL-5, 5 h, read-out: Cytotox SUDHL5 [M] (median), SUDHL5 cells, cytotoxicity induction, CellTiter-Glo, 5 h, median): 1.55e-05 M; IC50 (SUDHL10 [5]; Homo sapiens, SU-DHL10, 5 h, read-out: Cytotox SUDHL10 [M] (median), SUDHL10 cells, cytotoxicity induction, CellTiter-Glo, 5 h, median): > 3.3e-05 M; IC50 (SUDHL5 [6]; Homo sapiens, SU-DHL-5, 72 h, 72 h): 2.71e-05 M
3 | Cn1nc(CN2CCCCC2)c2c1COCCCCn1c(C(=O)O)c(CCCOc3cccc4ccccc34)c3cccc-2c31 (single isomer, unassigned; enantiomer 2) [Example 334, 1-methyl-7-[3-(naphthalen-1-yloxy)propyl]-3-(piperidin-1-ylmethyl)-1,10,11,12,13,15-hexahydropyrazolo[4′3′:9,10][1,6]oxazacycloundecino[8,7,6-hi]indole-8-carboxylic Acid (Enantiomer 2)] | – | – | – | – | 1.47e-05 | 0.0917 | – | 2.87e-05 M | 16.9 | 25.7 | – | – | – | – | IC50 (SUDHL10 [1]; 72 h): 1.54e-05 M; IC50 (SUDHL5 [4]; [11]): 1.85e-05 M; IC50 (SUDHL10 [5]; [12]): 2.67e-05 M; IC50 (SUDHL5 [6]; 72 h): 1.68e-05 M
4 | O=C(O)c1c(CCCOc2cccc3ccccc23)c2cccc3c2n1CCCCOCc1nn2c(c1-3)COCC2 (single isomer, unassigned) [Example 252, 1-[3-(naphthalen-1-yloxy)propyl]-4,5,6,7,12,13-hexahydro-9H,15H-[1,4]oxazino[4″,3″:1′,5′]pyrazolo[4′,3′:9,10][1,6]oxazacycloundecino[8,7,6-hi]indole-2-carboxylic acid-N-ethylethanamine Salt] | – | – | – | – | 1.04e-05 | 0.0037 | – | 3.16e-05 M and > 3.3e-05 M | 4.79 | 17.2 | 6.31e-06 | 5.17e-06 | 2.09e-05 | 8.78e-06 | –
5 | Cc1c2c(nn1C)CCCCCCn1c(C(=O)O)c(CCCOc3cccc4ccccc34)c3cccc-2c31 (single isomer, unassigned; enantiomer 1) [Example 191, 2,3-dimethyl-7-[3-(1-naphthyloxy)propyl]-10,11,12,13,14,15-hexahydro-2H-pyrazolo[4′,3′:4,5]azacycloundecino[3,2,1-hi]indole-8-carboxylic acid-N-ethylethanamine Salt (Enantiomer 1)] | 4.64e-06 | 2.55e-05 | – | – | 2.58e-06 | 0.00273 | – | – | 2.09 | 7.16 | – | 1.87e-06 | 5.01e-06 | 3.23e-06 | –
6 | O=C(O)c1c(CCCOc2cccc3ccccc23)c2cccc3c2n1CCCCOCc1nn2c(c1-3)CCCC2 (racemic) [Example 253, (rac)-1-[3-(naphthalen-1-yloxy)propyl]-4,5,6,7,12,13,14,15-octahydro-9H-pyrido[1″,2″:1′,5′]pyrazolo[4′,3′:9,10][1,6]oxazacycloundecino[8,7,6-hi]indole-2-carboxylic Acid] | 1.17e-05 | 2.83e-05 | 6.7 | 18.6 | 7.59e-06 | 0.00867 | 1.96e-05 | – | – | – | – | – | – | – | IC50 (SUDHL5 [4]; [8]): 6.7e-06 M; IC50 (SUDHL5 [6]; [10]): 5.74e-06 M
7 | Cc1cc(OCCCc2c(C(=O)O)n3c4c(cccc24)-c2c(C)nn(C)c2COCCC3)cc(C)c1Cl (single isomer, unassigned; enantiomer 2) [Example 015, 1-[3-(4-chloro-3,5-dimethylphenoxy)propyl]-9,11-dimethyl-5,6,8,9-tetrahydro-4H-pyrazolo[4′,3′:8,9][1,5]oxazecino[7,6,5-hi]indole-2-carboxylic acid-N-ethylethanamine Salt (Enantiomer 2)] | – | – | – | – | 1.33e-05 | 0.00958 | – | 1.23e-05 M | 25.7 | 29.2 | 8.48e-06 | 2.1e-05 | 2.87e-05 | 1.13e-05 | –
8 | Cc1nn(CC(F)(F)F)c2c1-c1cccc3c(CCCOc4cccc5ccccc45)c(C(=O)O)n(c13)CCCCOC2 (single isomer, unassigned; enantiomer 1) [Example 110, 3-methyl-7-[3-(naphthalen-1-yloxy)propyl]-1-(2,2,2-trifluoroethyl)-1,10,11,12,13,15-hexahydropyrazolo[4′,3′:9,10][1,6]oxazacycloundecino[8,7,6-hi]indole-8-carboxylic acid-N-ethylethanamine Salt (Enantiomer 1)] | – | > 3.3e-05 | – | 26 | 1.33e-05 | 0.0124 | 2.37e-05 | – | 8.06 | – | 1.72e-05 | 6.54e-06 | – | 1.24e-05 | –
9 | COCc1nn(C)c2c1-c1cccc3c(CCCOc4cccc5ccccc45)c(C(=O)O)n(c13)CCCCN(C)C2 (single isomer, unassigned; enantiomer 1) [Example 184, 3-(methoxymethyl)-1,14-dimethyl-7-[3-(naphthalen-1-yloxy)propyl]-10,11,12,13,14,15-hexahydro-1H-pyrazolo[3′,4′:8,9][1,6]diazacycloundecino[10,11,1-hi]indole-8-carboxylic acid-N-ethylethanamine Salt (Enantiomer 1)] | – | > 3.3e-05 | – | – | 1.52e-06 | 0.0016 | – | – | 0.803 | 2.9 | 1.2e-06 | 8.82e-07 | 2.94e-06 | 1.34e-06 | –
10 | Cn1nc(CN2CC3(COC3)C2)c2c1COCCCCn1c(C(=O)O)c(CCCOc3cccc4ccccc34)c3cccc-2c31 (single isomer, unassigned; enantiomer 2) [Example 345, 1-methyl-7-[3-(naphthalen-1-yloxy)propyl]-3-(2-oxa-6-azaspiro[3.3]hept-6-ylmethyl)-1,10,11,12,13,15-hexahydropyrazolo[4′,3′:9,10][1,6]oxazacycloundecino[8,7,6-hi]indole-8-carboxylic acid-N-ethylethanamine Salt (Enantiomer 2)] | – | – | – | – | – | 0.026 | – | 1.59e-05 M | 7.02 | 12.8 | – | – | – | – | IC50 (SUDHL10 [1]; 72 h): 5.68e-06 M; IC50 (MV-4-11; MV4-11, MV-4-11 cells): 7.47e-06 M; IC50 (SUDHL5 [4]; [11]): 8.32e-06 M; IC50 (SUDHL10 [5]; [12]): 1.32e-05 M; IC50 (SUDHL5 [6]; 72 h): 7.32e-06 M
